Counter-ions that a name gives are not always drawn.
Assays:
[1] = tested on: mouse melanoma cell line B16F10; test: MTT cancer cell cytotoxicity assay, B16F10; assay type: cell-based; details: Mus musculus, B16-F10, B16F10 cells, 48-72 h
Procedure: Identification of 3-(2-methoxyphenyl)-6-(4-methoxyphenyl)-[1,2,4]triazolo[4,3-a]pyridine and analogs as inhibitors of cell proliferation that were evaluated with standard MTT cancer cell cytotoxicity assay (IC50)
Human lung cancer cell line A549, breast cancer cell line T47D, liver cancer cell lines HepG2 and SMMC7721 as well as a mouse melanoma cell line B16F10 were used in the study. The cells were cultured in corresponding growth media recommended by American Type Culture Collection (ATCC) with the supplementation of penicillin G (100 U/ml)/streptomycin (100 µg/ml), and 10% fetal bovine serum (Hangzhou Sijiqing Biological Engineering Materials, Co., Ltd. China) at 37° C. in a humidified atmosphere containing 5% CO2. Cells at about 80% confluency were harvested by trypsinization. Cells were centrifuged, re-suspended in fresh growth media and counted. Corresponding numbers of cells were seeded to 96-well cell culture plates (HepG2 cell, T-47D and A549 cells at 3000 cells/well, SMMC-7721 cells at 5000 cells/well and B16F10 cells at 2000 cells/well) in a total volume of […]. Cells were incubated in CO2 incubator over night to allow the cells to attach. In next day, […] of medium containing testing (from 10 μM to 1 nM) or reference compounds was added to each well of the cells. Media without compound were used as 100% control. Cells were treated with each concentration of compounds in triplicates to ensure data accuracy. Cells were incubated with compounds in CO2 incubator for an additional 48-72 h at 37° C. After incubation, cells were removed from the CO2 incubator and […] of 5 mg/ml MTT (3-(4,5-dimethylthiazole-2-yl)-2,5-diphenyltetrazoliumbromide, Sigma) solution in PBS was added to each well. Cells were returned to CO2 incubator and incubated for additional 4 h. After the incubation, media were removed by aspiration and […] DMSO was added to each well. Plates were sealed with aluminum foil and shaked mildly on an orbital shaker for 10 min at room temperature. The absorption was measured at 550 nm with a plate reader (Varioskan Flash, Thermo Fisher Scientific) with 660 nm reading used as background control. The relative absorbance readings were calculated by subtracting readings at 660 nm from that at 550 nm. The relative absorbance was plotted again the concentrations of the testing compounds and the plots were fitted with a one-site lg(IC50) equation using Prism 5 software (GraphPad Software, Inc). The equation used in the curve fitting is as follows: relative absorbance reading=background reading+(maximal reading−brackground reading)/(1+10 ^(compound concentration-log IC50)). The background reading used in the calculation was obtained with 100% cell death using a reference anticancer drug, whereas the maximal reading was obtained in the well with no added compound. The IC50 value calculated from the equation represents the cytotoxic potency of a particular compound.

[2] = tested on: Human lung cancer cell line A549; test: MTT cancer cell cytotoxicity assay, A549; assay type: cell-based; details: Homo sapiens, A549 cells, 48-72 h
In short: (§1)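 Seeding: HepG2 and A549 at 3000, SMMC7721 at 5000, B16F10 at 2000 cells/well, attached overnight. Compounds (10 μM to 1 nM, triplicate) were applied for 48-72 h at 37 °C, followed by 4 h MTT. A550 minus A660 was fitted for IC50, with untreated wells as maximum and reference-drug total kill as background.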

[3] = tested on: breast cancer cell line T47D; test: MTT cancer cell cytotoxicity assay, T47D; assay type: cell-based, human; details: Homo sapiens, T47D cells, 48-72 h
In short: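 Human T47D breast cancer cells, cultured per ATCC recommendations with 10% fetal bovine serum and penicillin/streptomycin, were plated at 3000 cells/well in 96-well plates. After overnight attachment they were exposed in triplicate to compounds (10 μM to 1 nM) for 48-72 h. MTT was then added for 4 h and the formazan dissolved in DMSO. Absorbance at 550 nm minus 660 nm was fitted in Prism 5 to give IC50.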

[4] = tested on: liver cancer cell line HepG2; test: MTT cancer cell cytotoxicity assay, HepG2; assay type: cell-based, human; details: Homo sapiens, HepG2 cells, 48-72 h
In short: as §1

[5] = tested on: liver cancer cell line SMMC7721; test: MTT cancer cell cytotoxicity assay, SMMC7721; assay type: cell-based, human; details: Homo sapiens, SMMC-7721, SMMC7721 cells, 48-72 h
In short: as §1

caspase-3 activation [6] = test: Caspase-3 activation (apoptosis induction) in T-47D cells; assay type: cell-based; details: Homo sapiens; T47D cells, 24 h treatment; read-out: EC50 to induce caspase-3 activation, T47D
Procedure: (§2) Identification of 3-(2-methoxyphenyl)-6-(4-methoxyphenyl)-[1,2,4]triazolo[4,3-a]pyridine and analogs as inducers of apoptosis in solid tumor cells
(§3) Human breast cancer cell line T-47D and lung cancer cell line A549, growing in DMEM/F12+10% FBS media were seeded to a density of 20000 cells/well in 96-well cell culture plate and grew overnight (18-24 h) in CO2 cell culture incubator at 37° C. Next day the medium were removed by aspiration and […] fresh growth media was added to each well followed by […] of growth media containing 10× concentration of reference or testing compounds with 10% DMSO. Twenty four hours later, cell culture plates were centrifuged at 1000 g for 5 min and the supernatant was removed by emptying contents into a reservoir. Fifty μl of Lysis Buffer (10 mM Tris, pH7.5, 0.1M NaCl, 1 Mm EDTA, 0.01% Triton X-100) was added to each well and the plates were incubated with gentle agitation on an orbital shaker at 4° C. for 30 min. The plates were then centrifuged at 1000 g for 10 min at 4° C. and 20 μl of the supernatant was transferred from each well to a corresponding well in a black 384-well. Twenty μl of caspase-3 assay buffer (20 mM PIPES, pH7.4, 4 Mm EDTA and 0.2% CHAPS) containing 20 μM fluorogenic caspase-3 substrate ((Ac-DEVD)2-R110, AnaSpec Cat #60304-5) was added to each well. The samples were mixed by agitation and incubated at 37° C. for 3 h. The fluorescent intensity of each well was read on a fluorescent plate reader (Varioskan Flash, Thermo Fisher Scientific) with excitation wavelength at 496 nm and emission wavelength at 520 nm. The activity of compounds on caspase-3 activation was determined by plotting the relative fluorescent unit (RFU) against the testing concentrations of the compounds. The EC50 values were determined by fitting the above responding curves into Prism sigmoidal dose-response equation (GraphPad Software, Inc).

caspase-3 activation [7] = test: Caspase-3 activation (apoptosis induction) in A549 cells; assay type: cell-based; details: Homo sapiens, A-549 cells, 24 h treatment, read-out: EC50 to induce caspase-3 activation, A-549
Procedure: as §2, §3

EC50 (caspase-3 activation [6]) | EC50 (caspase-3 activation [7]) | Compound | IC50 [1] | IC50 [2] | IC50 [3] | IC50 [4] | IC50 [5]
62 nM | 11 nM | COc1ccc(-c2ccc3nnc(-c4ccc(C)cc4OC)n3c2)cc1 [Example 66, 3-(2-Methoxy-4-methylphenyl)-6-(4-methoxyphenyl)-[1,2,4]triazolo[4,3-a]pyridine] | 3.4 nM | 12 nM | 19 nM | 15 nM | 3.7 nM
25 nM | – | COc1ccc(-c2ccc3nnc(-c4ccc(Br)cc4OC)n3c2)cc1 [Example 59, 3-(4-Bromo-2-methoxyphenyl)-6-(4-methoxyphenyl)-[1,2,4]triazolo[4,3-a]pyridine] | 6.1 nM | 12 nM | 6.6 nM | 7.1 nM | 3.8 nM
2.8 nM | – | COc1ccc(-c2ccc3nnc(-c4ccc(C)cc4OC)n3c2)cc1O [Example 51, 6-(3-Hydroxy-4-methoxyphenyl)-3-(2-methoxy-4-methylphenyl)-[1,2,4]triazolo[4,3-a]pyridine] | 2.1 nM | 4 nM | 1.1 nM | 1.1 nM | > 10000 nM
3.5 nM | – | COc1ccc(-c2ccc3nnc(-c4ccc(Cl)cc4OC)n3c2)cc1N [Example 50, 6-(3-Amino-4-methoxyphenyl)-3-(4-chloro-2-methoxyphenyl)-[1,2,4]triazolo[4,3-a]pyridine] | 1.6 nM | 1.7 nM | 1.1 nM | 1.4 nM | 1.3 nM
22 nM | – | COc1ccc(-c2ccc3nnc(-c4ccc([N+](=O)[O-])cc4OC)n3c2)cc1 [Example 70, 3-(2-Methoxy-4-nitrophenyl)-6-(4-methoxyphenyl)-[1,2,4]triazolo[4,3-a]pyridine] | 4.4 nM | 6.7 nM | 13 nM | 22 nM | 9.9 nM
240 nM | 32 nM | COc1ccc(-c2ccc3nnc(-c4ccccc4OC)n3c2)cc1Cl [Example 26, 6-(3-Chloro-4-methoxyphenyl)-3-(2-methoxyphenyl)-[1,2,4]triazolo[4,3-a]pyridine] | 23 nM | 33 nM | 52 nM | 23 nM | 12 nM
23 nM | – | COc1ccc(-c2ccc3nnc(-c4ccccc4OC)n3c2)cc1N [Example 46, 6-(3-Amino-4-methoxyphenyl)-3-(2-methoxyphenyl)-[1,2,4]triazolo[4,3-a]pyridine hydrochloride] | 3.7 nM | 9.4 nM | 9.7 nM | 9.9 nM | 5.7 nM
9.3 nM | – | COc1ccc(-c2ccc3nnc(-c4ccc(Cl)cc4OC)n3c2)cc1F [Example 49, 3-(4-Chloro-2-methoxyphenyl)-6-(3-fluoro-4-methoxyphenyl)-[1,2,4]triazolo[4,3-a]pyridine] | 4.9 nM | 4.9 nM | 4.5 nM | 3.3 nM | 4.6 nM
228 nM | 25 nM | COc1ccc(-c2ccc3nnc(-c4ccccc4OC)n3c2)cc1F [Example 35, 6-(3-Fluoro-4-methoxyphenyl)-3-(2-methoxyphenyl)-[1,2,4]triazolo[4,3-a]pyridine] | 16 nM | 20 nM | 68 nM | 19 nM | 9.9 nM
5.4 nM | – | COc1ccc(-c2ccc3nnc(-c4ccc(C)cc4OC)n3c2)cc1N [Example 52, 6-(3-Amino-4-methoxyphenyl)-3-(2-methoxy-4-methylphenyl)-[1,2,4]triazolo[4,3-a]pyridine] | 2.1 nM | 2.6 nM | 2 nM | 2.3 nM | 1.8 nM
55 nM | 83 nM | COc1ccc(-c2ccc3nnc(-c4ccccc4OC)n3c2)cc1 [Example 1, 3-(2-Methoxyphenyl)-6-(4-methoxyphenyl)-[1,2,4]triazolo[4,3-a]pyridine] | 36 nM | 35 nM | 37 nM | 28 nM | 13 nM
86 nM | – | COc1ccccc1-c1nnc2ccc(-c3ccc(N(C)C)cc3)cn12 [Example 17, 6-(4-Dimethylaminophenyl)-3-(2-methoxyphenyl)-[1,2,4]triazolo[4,3-a]pyridine] | – | 29 nM | 65 nM | 48 nM | 14 nM
16 nM | – | COc1ccc(-c2ccc3nnc(-c4ccccc4OC)n3c2)cc1O [Example 20, 6-(3-Hydroxy-4-methoxyphenyl)-3-(2-methoxyphenyl)-[1,2,4]triazolo[4,3-a]pyridine] | 18 nM | 13 nM | 18 nM | 11 nM | > 10000 nM
2.3 nM | – | COc1ccc(-c2ccc3nnc(-c4ccc(Cl)cc4OC)n3c2)cc1O [Example 89, 3-(4-Chloro-2-methoxyphenyl)-6-(3-hydroxy-4-methoxyphenyl)-[1,2,4]triazolo[4,3-a]pyridine] | 1.1 nM | 1.6 nM | 0.84 nM | 1.4 nM | > 10000 nM
9.1 nM | – | COc1ccc(-c2ccc3nnc(-c4ccc(C)cc4OC)n3c2)cc1F [Example 53, 6-(3-Fluoro-4-methoxyphenyl)-3-(2-methoxy-4-methylphenyl)-[1,2,4]triazolo[4,3-a]pyridine] | 6.2 nM | 7.4 nM | 6.7 nM | 5.7 nM | 8.3 nM
74 nM | – | CNc1ccc(-c2ccc3nnc(-c4ccccc4OC)n3c2)cc1 [Example 48, 6-(4-Methylaminophenyl)-3-(2-methoxyphenyl)-[1,2,4]triazolo[4,3-a]pyridine hydrochloride] | – | 26 nM | 18 nM | 31 nM | 11 nM

— patent publication US9199983B2, “3-aryl-6-aryl-[1,2,4]triazolo[4,3-α]pyridines as inhibitors of cell proliferation and the use thereof” (priority 2010, dated 2015)
